From ChEMBL document CHEMBL1129823, “Cytotoxicity and actin depolymerizing activity of aplyronine A, a potent antitumor macrolide of marine origin, and the natural and artificial analogs” (Bioorg Med Chem Lett, 1997)
In brackets after ≈: the same amount, converted by molar mass. Activity calls are given as the source filed them. The calls are words filed in the database; no cut-off is given here.

Columns and labels:
Oryctolagus cuniculus [1] = organism: Oryctolagus cuniculus; test: Relative potency was calculated from the Actin depolymerizing activity (aplyronine A = 100); format: functional
[2] = F-Actin (40 uM) depolymerizing activity which was monitored by measuring flow birefringence.; format: functional, Oryctolagus cuniculus
HeLa [3] = test: Evaluated for the cytotoxicity against HeLa S3 cells; format: functional, cell-based; settings: Homo sapiens
HeLa [4] = test: Relative potency was calculated from the cytotoxicity against HeLa S3 cells (aplyronine A = 100); format: functional, Homo sapiens
[5] = Compound was evaluated for the F-Actin (40 uM) depolymerizing activity which was monitored by measuring flow birefringence (Actin was extracted in cold water from the acetone-dried powder of rabbit skeletal muscle); format: functional, tissue-based, Oryctolagus cuniculus, Muscle tissue
[6] = Compound was evaluated for the F-Actin (40 uM) depolymerizing activity* which was monitored by measuring flow birefringence (Actin was extracted in cold water from the acetone-dried powder of rabbit skeletal muscle); format: functional, tissue-based, Oryctolagus cuniculus, Muscle tissue
Oryctolagus cuniculus [7] = organism: Oryctolagus cuniculus; test: Relative potency was calculated from the Actin depolymerizing activity (aplyronine A = 100); Inactive; format: functional
[8] = Compound was evaluated for the F-Actin (40 uM) depolymerizing activity which was monitored by measuring flow birefringence (Actin was extracted in cold water from the acetone-dried powder of rabbit skeletal muscle); Inactive; format: functional, tissue-based, Oryctolagus cuniculus, Muscle tissue

Compound	IC50 [2]	IC50 [5]	IC50 [6]	IC50 [8]	Relative potency (Oryctolagus cuniculus [1])	IC50 (HeLa [3])	Relative potency (HeLa [4])	Relative potency (Oryctolagus cuniculus [7])
COCC(C(=O)O[C@@H]1CCCCCC(=O)O[C@H]([C@@H](C)[C@@H](O)[C@@H](C)CC[C@@H](OC(=O)C(C)N(C)C)[C@H](C)[C@H](OC(C)=O)[C@H](C)CCO)C/C=C/[C@H](OC)C[C@H](C)C/C=C(\C)[C@@H](OC)CC[C@@H](C)[C@@H](O)[C@@H]1C)N(C)C (stereo not given in full)	70 µM				44	0.057 µg/mL (≈ 0.0547 µM)	0.84	
CO[C@H]1CC[C@@H](C)[C@@H](O)[C@H](C)[C@H](O)C/C=C/C=C/C(=O)O[C@H]([C@@H](C)[C@@H](O)[C@@H](C)CC[C@@H](OC(=O)C(C)N(C)C)[C@H](C)[C@H](OC(C)=O)[C@H](C)/C=C/N(C)C=O)C/C=C/[C@H](OC)C[C@H](C)C/C=C/1C (stereo not given in full) [APLYRONINE C]	32 µM				97	0.0212 µg/mL (≈ 0.0224 µM)	2.3	
C[C@H]([C@H](O)[C@H](C)CCO)[C@H](O)CC[C@H](C)[C@H](O)[C@H](C)[C@@H](O)CCO			7600 µM		0.41			
COCC(C(=O)O[C@@H]1C/C=C/C=C/C(=O)OCC/C=C/[C@H](OC)C[C@H](C)C/C=C(\C)[C@@H](OC)CC[C@@H](C)[C@@H](O)[C@@H]1C)N(C)C (stereo not given in full)						2.1 µg/mL (≈ 3.38 µM)	0.023	
COCC(C(=O)O[C@@H]1C/C=C/C=C/C(=O)O[C@H]([C@@H](C)[C@@H](O)[C@@H](C)CC[C@@H](OC(=O)C(C)N(C)C)[C@H](C)[C@H](OC(C)=O)[C@H](C)/C=C/N(C)C=O)C/C=C/[C@H](OC)C[C@H](C)C/C=C(\C)[C@@H](OC)CC[C@@H](C)[C@@H](O)[C@@H]1C)N(C)C (stereo not given in full) [APLYRONINE A]	31 µM				100	0.00048 µg/mL (≈ 0.000446 µM)	100	
CO[C@H]1CC[C@@H](C)[C@@H](O)[C@H](C)[C@H](O)C/C=C/C=C/C(=O)O[C@H]([C@@H](C)[C@@H](O)[C@@H](C)CC[C@@H](O)[C@H](C)[C@H](OC(C)=O)[C@H](C)/C=C/N(C)C=O)C/C=C/[C@H](OC)C[C@H](C)C/C=C/1C	35 µM				86	0.113 µg/mL (≈ 0.133 µM)	0.42	
CO[C@@H]1/C=C/C[C@@H](C)C[C@@H](OC)/C=C/C[C@@H]([C@@H](C)[C@@H](O)[C@@H](C)CC[C@@H](OC(=O)CN(C)C)[C@H](C)[C@H](OC(C)=O)[C@H](C)CCO)OC(=O)/C=C/C=C/C[C@@H](OC(=O)CN(C)C)[C@@H](C)[C@H](O)[C@H](C)CC1	49 µM				63	> 2 µg/mL	<0.02	
COCC(C(=O)O[C@H]1[C@H](C)[C@H](O)C/C=C/C=C/C(=O)O[C@H]([C@@H](C)[C@@H](O)[C@@H](C)CC[C@@H](OC(=O)C(C)N(C)C)[C@H](C)[C@H](OC(C)=O)[C@H](C)/C=C/N(C)C=O)C/C=C/[C@H](OC)C[C@H](C)C/C=C(\C)[C@@H](OC)CC[C@H]1C)N(C)C (stereo not given in full) [APLYRONINE B]	33 µM				94	0.00311 µg/mL (≈ 0.00289 µM)	15	
COCC(C(=O)O[C@@H]1C/C=C/C=C/C(=O)O[C@H]([C@@H](C)[C@@H](OC(C)=O)[C@@H](C)CC[C@@H](OC(=O)C(C)N(C)C)[C@H](C)[C@H](OC(C)=O)[C@H](C)/C=C/N(C)C=O)C/C=C/[C@H](OC)C[C@H](C)C/C=C(\C)[C@@H](OC)CC[C@@H](C)[C@@H](OC(C)=O)[C@@H]1C)N(C)C (stereo not given in full)	57 µM				54	0.216 µg/mL (≈ 0.186 µM)	0.22	

Second part, led by results:

IC50 [2]	IC50 [5]	IC50 [6]	IC50 [8]	Compound	Relative potency (Oryctolagus cuniculus [1])	IC50 (HeLa [3])	Relative potency (HeLa [4])	Relative potency (Oryctolagus cuniculus [7])
78 µM				COCC(C(=O)O[C@@H]1C/C=C/C=C/C(=O)O[C@H]([C@@H](C)[C@@H](O)[C@@H](C)CC[C@@H](OC(=O)C(C)N(C)C)[C@H](C)[C@H](OC(C)=O)[C@H](C)CCO)C/C=C/[C@H](OC)C[C@H](C)C/C=C(\C)[C@@H](OC)CC[C@@H](C)[C@@H](O)[C@@H]1C)N(C)C (stereo not given in full)	40	0.00172 µg/mL (≈ 0.00166 µM)	28	
	4500 µM			COCC(C(=O)O[C@@H]1C/C=C/C=C/C(=O)O[C@H]([C@@H](C)[C@@H](O)[C@@H](C)CO)C/C=C/[C@H](OC)C[C@H](C)C/C=C/[C@@H](OC)CC[C@@H](C)[C@@H](O)[C@@H]1C)N(C)C (stereo not given in full)	0.69	> 2 µg/mL	<0.02	
190 µM				COCC(C(=O)O[C@@H]1C/C=C/C=C/C(=O)O[C@H]([C@@H](C)[C@@H](O)[C@@H](C)CC[C@@H](O)[C@H](C)[C@H](O)[C@H](C)CCO)C/C=C/[C@H](OC)C[C@H](C)C/C=C/[C@@H](OC)CC[C@@H](C)[C@@H](O)[C@@H]1C)N(C)C (stereo not given in full)	16	0.083 µg/mL (≈ 0.0941 µM)	0.58	
1800 µM				COCC(C(=O)O[C@@H]1C/C=C/C=C/C(=O)O[C@H]([C@@H](C)[C@@H](O)[C@@H](C)COC(=O)C(C)N(C)C)C/C=C/[C@H](OC)C[C@H](C)C/C=C/[C@@H](OC)CC[C@@H](C)[C@@H](O)[C@@H]1C)N(C)C (stereo not given in full)	1.7			
35 µM				COCC(C(=O)O[C@@H]1C/C=C/C=C/C(=O)O[C@H]([C@@H](C)[C@@H](O)[C@@H](C)CC[C@@H](O)[C@H](C)[C@H](OC(C)=O)[C@H](C)/C=C/N(C)C=O)C/C=C/[C@H](OC)C[C@H](C)C/C=C(\C)[C@@H](OC)CC[C@@H](C)[C@@H](O)[C@@H]1C)N(C)C (stereo not given in full)	86	0.00103 µg/mL (≈ 0.00105 µM)	47	
36 µM				COCC(C(=O)O[C@@H]1C/C=C/C=C/C(=O)O[C@H]([C@@H](C)[C@@H](O)[C@@H](C)CC[C@@H](O)[C@H](C)[C@H](OC(C)=O)[C@H](C)CCO)C/C=C/[C@H](OC)C[C@H](C)C/C=C/[C@@H](OC)CC[C@@H](C)[C@@H](O)[C@@H]1C)N(C)C (stereo not given in full)	86	0.037 µg/mL (≈ 0.04 µM)	1.3	
38 µM				COCC(C(=O)O[C@@H]1C/C=C/C=C/C(=O)O[C@H]([C@@H](C)[C@@H](O)[C@@H](C)CC[C@@H](OC(=O)C(C)N(C)C)[C@H](C)[C@H](OC(C)=O)[C@H](C)CCO)C/C=C/[C@H](OC)C[C@H](C)C/C=C/[C@@H](OC)CC[C@@H](C)[C@@H](O)[C@@H]1C)N(C)C (stereo not given in full)	82	0.0026 µg/mL (≈ 0.00254 µM)	18	
			Not Active	COCC(C(=O)O[C@@H]1C/C=C/C=C/C(=O)OCC/C=C/[C@H](OC)C[C@H](C)C/C=C/[C@@H](OC)CC[C@@H](C)[C@@H](O)[C@@H]1C)N(C)C (stereo not given in full)				inactive
